Results from article PMC2937036 (PLoS ONE, 2010).
Where a SMILES comes first, the peptide text is derived from it. Bridges are numbered along the chain shown (N, C = ends).

Key:
in vitro = conditions: male, human, 25% human male serum
Experimental: To investigate the effects of the modifications on proteolytic susceptibility, the disappearance of the intact peptides incubated in diluted human serum at 37°C was followed by RP-HPLC. […] Incubations were normally done for 9 h and, in some cases, longer.
Peptide stabilities were assayed in diluted serum as previously described. 25% human male serum was centrifuged at 13,000 rpm for 10 min to remove lipids and the supernatant was collected and incubated at 37°C for at least 15 min. The assay was initiated upon the addition of the test peptide to the serum for a final peptide concentration of 5 µM. 200 µL aliquots of the incubations were taken for the following time points: 0, 30, 75, 120, 240, 390 and 540 min. The aliquots were mixed with 40 µL of 15% trichloroacetic acid (TCA) and incubated at 4°C for at least 15 min to precipitate serum proteins. In the case of Com5 and Com6, 5 µL of 1 M NaOH was supplemented to the TCA to prevent peptide precipitation. The supernatant was collected for each sample after centrifugation at 13,000 rpm for 10 min and stored at −20°C. These assays were performed in triplicate.
Reverse phase high performance liquid chromatography (RP-HPLC) analysis was performed with an AKTA Purifier from Amersham Biosciences (Westborough, MA) using an uRPC C2/C18 ST 4.6/100 column from Pharmacia Biotech (SanJose, CA) of the following dimensions: bed length 100 mm, i.d. 4.6 mm, 120Å. Individually thawed samples were injected through a 100 µL loop, after which a linear gradient was run from 100% solution A (0.05% trifluoroacetic acid (TFA) in filtered water) to 100% solution B (0.045% TFA in 90% acetonitrile) with a flow rate at 0.5 mL/min. The relative concentrations of the remaining soluble peptides were analyzed by the integration of the absorbance at 215 nm as a function of retention time using the Analysis module of the Unicorn software package.

Escherichia coli ML35 = experiment: Bactericidal assay (LD99.9), E. coli; type: cell-based; conditions: 10 mM phosphate buffer pH 7.0 with 1% TSB, 2 h, 37°C
Experimental: (§1) The peptides were tested for microbicidal activities against Bacillus subtilis ATCC6633, Escherichia coli ML35, and Staphylococcus aureus 42D as previously described. Suspensions of logarithmically growing test bacteria were incubated on a microtiter plate at a concentration of 10^5 colony-forming units/mL with various peptide dilutions. The medium was 100 µL of 10 mM phosphate buffer pH 7.0 supplemented with 1% (v/v) of tryptic soy broth (TSB). For later assays, human male serum was also added to a final concentration of 25%. 10 µL aliquots were collected at time 0 h and after 2 h of incubation on a rotary shaker (300 rpm) at 37°C. These were plated on blood agar plates and incubated overnight at 37°C. The Lethal Dose concentration (LD99.9) was determined, corresponding to the concentration killing >99.9% of the inoculum at 2 h. These experiments were performed in duplicate.
(§2) For the testing of the peptides' activities in different conditions, e.g. with serum, we use the same cut-off for activity as defined for Minimum Bactericidal Concentration (MBC), i.e. a 1000-fold reduction of the inoculum. However, we designate this peptide concentration with the more general term LD99.9 which can be applied to the specified conditions of the experiments performed here.

[1] = target: bovine serum albumin (BSA) (Bos taurus, UniProt P02769); experiment: biochemical
Sequence of bovine serum albumin (BSA) (P02769 25-607): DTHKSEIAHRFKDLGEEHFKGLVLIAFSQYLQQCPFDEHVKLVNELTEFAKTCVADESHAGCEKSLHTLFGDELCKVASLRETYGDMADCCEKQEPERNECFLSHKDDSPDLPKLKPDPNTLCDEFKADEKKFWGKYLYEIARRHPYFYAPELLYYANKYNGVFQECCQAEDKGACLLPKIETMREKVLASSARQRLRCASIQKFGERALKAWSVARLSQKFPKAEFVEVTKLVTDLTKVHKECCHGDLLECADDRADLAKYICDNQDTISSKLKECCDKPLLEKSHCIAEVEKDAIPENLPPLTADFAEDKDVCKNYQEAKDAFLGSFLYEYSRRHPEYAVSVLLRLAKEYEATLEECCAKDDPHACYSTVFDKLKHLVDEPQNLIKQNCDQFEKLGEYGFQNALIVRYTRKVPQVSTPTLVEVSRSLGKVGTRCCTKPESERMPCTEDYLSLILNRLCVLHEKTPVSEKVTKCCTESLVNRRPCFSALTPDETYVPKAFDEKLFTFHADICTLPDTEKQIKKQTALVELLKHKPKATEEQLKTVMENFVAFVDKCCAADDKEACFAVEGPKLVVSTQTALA
Experimental: The potential for interactions between various peptides and bovine and human serum albumin (BSA and HSA) were studied by microcalorimetry.
ITC experiments were performed at 25°C on a Microcal VP-ITC microcalorimeter with data analysis performed with the Microcal Origin software. The sample cell contained 0.1 mM of either BSA or HSA dissolved in 20 mM HEPES, 100 mM NaCl, pH 7.9. The syringe was loaded with 2 mM test peptide in the same buffer, and each titration point resulted from 5 µL injections following an initial 2 µL injection. Separate control experiments were also performed to account for heats of dilution/mixing.

[2] = test system: Staphylococcus aureus 42D; experiment: Bactericidal assay (LD99.9), S. aureus; type: cell-based; conditions: 10 mM phosphate buffer pH 7.0 with 1% TSB, 2 h, 37°C
Experimental: as §1, §2

[3] = test system: Staphylococcus aureus 42D; experiment: Bactericidal assay (LD99.9), S. aureus in 25% human serum; type: cell-based; conditions: unit not given (Table 3 uses µM)
Experimental: In order to be able to make a direct comparison with our serum stability measurements, a few peptides were selected to be tested for antimicrobial activity in 25% human serum (Table 4). […] All LD99.9 values are higher compared to the initial assays in 10 mM sodium phosphate buffer. Contributing factors to this general loss in activity could be the increased ionic concentration, interactions with serum components such as albumin or other proteins, and peptide degradation. Both hexamers with unprotected termini, Lfc1 and Com1, are no longer active while the cyclized short peptides remained fairly antimicrobial. In human serum, Lfc5 and Lfc6 are equally anti-staphylococcal. This reflects a greater loss of activity for Lfc6, but also coincides with the lower serum stability that this peptide has compared to Lfc5 (Fig. 2C). The activities of the cyclized Com peptides were all lowered equally with a 16-fold increase in LD99.9 values compared to activities in serum-excluded media and this agrees with their similar stability profiles (Fig. 2D).
as §1, §2

[4] = test system: Bacillus subtilis ATCC6633; experiment: Bactericidal assay (LD99.9), B. subtilis; type: cell-based; conditions: 10 mM phosphate buffer pH 7.0 with 1% TSB, 2 h, 37°C
Experimental: as §1, §2

In the case of `CC(=O)N[C@H]1CSSC[C@@H](C(N)=O)NC(=O)[C@H](Cc2ccccc2)NC(=O)[C@H](CCCNC(=N)N)NC(=O)[C@H](Cc2c[nH]c3ccccc23)NC(=O)[C@H](Cc2c[nH]c3ccccc23)NC(=O)[C@H](CCCNC(=N)N)NC(=O)[C@H](CCCNC(=N)N)NC1=O` [Com7, CH3CO-CRRWWRFC-NH2] (Ac-CRRWWRFC-NH2; disulfide 1-8), the remaining at 6.5 h, 5 µM (in vitro) is reported as roughly 50%, the “99.9% Lethal Dose Concentration (LD99.9) E. coli” value (Escherichia coli ML35) is reported as 30 µM and the Kd [1] is reported as 210 µM. The “99.9% Lethal Dose Concentration (LD99.9) S. aureus” value [2] was 1.9 µM, the “LD99.9 anti-S. aureus in 25% human serum” value [3] was 30 and the “99.9% Lethal Dose Concentration (LD99.9) B. subtilis” value [4] was no more than 0.45 µM.
